According to patent US9045481B2 (priority 2012, dated 2015):

Experiments:
a3b4 nAChRs = a3b4 nAChRs (Homo sapiens, UniProt P30926+P32297); test: Relative potency at a3b4 nAChRs (epibatidine-induced calcium response), cell line not stated; type: cell-based
Method: Nicotinic functional assays are performed using the Molecular Devices FLIPR® Calcium 5 Assay Kit. HEK293 cells overexpressing a3β4, a4β2 or α7 (50,000 cells per well in 100 μl growth media) and are plated in clear bottom black walled 96-well microplates and incubated for 24-48 hours at 37° C., 5% CO2 until a 80-90% confluent monolayer is formed. On the day of the assay, 100 μl of Calcium 5 Dye is added to each well. Following addition of dye, cells are incubated at 25° C. for 60 minutes. Following dye loading, 50 μl of a 5× solution of reference or test compound of appropriate concentration range (0.01-30 μM), prepared in 20 mM HEPES pH 7.4 in HBSS, is added to each well. Plates are then transferred to the Molecular Devices Flexstation® which transfers 50 μL of a 5× solution (500 nM) of epibatine to each well to initiate the Ca+2 flux. Additional wells (in quadruplicate) are prepared with no added test or reference ligand for measurement of 100% flux. The RFU (relative fluorescence units) in the presence of the test or reference compounds is then expressed on the percent scale. The percent inhibition of epibatidine induced Ca^+2 flux is calculated as follows: % inhibition=100%−% RFU (relative fluorescence units). The IC50 values for reference and test compounds are obtained by fitting normalized RFU data using Graphpad Prism software.

[1] = CNS penetration across the blood brain barrier; type: in vivo, mice
Method: Mice are dosed with compounds. Brain to blood ratios are determined by HPLC and LC/MS/MS analysis following oral administration of the test compounds in mice.

mu opioid receptor (mOR) = target: T1, mu opioid receptor (mOR) (Homo sapiens, UniProt P35372); test: Mu opioid receptor radioligand binding; conditions: called weak affinity; read-out: Affinity at mu opioid receptors
T1 construct: expressed in transfected cells; host or cells: CHO or HEK293
T1 sequence (P35372 whole entry): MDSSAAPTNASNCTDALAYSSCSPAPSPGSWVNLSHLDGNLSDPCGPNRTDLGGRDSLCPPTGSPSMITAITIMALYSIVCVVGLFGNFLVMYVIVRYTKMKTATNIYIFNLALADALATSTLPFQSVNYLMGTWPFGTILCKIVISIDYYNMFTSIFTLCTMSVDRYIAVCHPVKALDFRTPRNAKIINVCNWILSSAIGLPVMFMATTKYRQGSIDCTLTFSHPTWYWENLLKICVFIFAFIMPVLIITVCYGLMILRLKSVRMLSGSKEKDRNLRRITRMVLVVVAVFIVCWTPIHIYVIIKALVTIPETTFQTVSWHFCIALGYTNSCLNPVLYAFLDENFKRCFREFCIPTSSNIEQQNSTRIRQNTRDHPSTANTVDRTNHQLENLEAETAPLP
Method: Established radioligand binding methods are used to evaluate the ability of the compounds to block reuptake of serotonin and dopamine in membrane preparations of synaptosomes. Equilibrium binding affinity values is determined for each compound at opioid receptors (μ and κ subtypes) and biogenic amine transporters (DAT and SERT). Where possible, binding experiments utilize membranes derived from CHO or HEK293 cells engineered to overexpress the human form of the receptor or transporter of interest. Radiolabeling of opioid receptors, and biogenic amine transporters utilizes conventional radioligands, buffers and incubation conditions according to published assays.
Test compounds, reference compounds and the radioligand (Kd value) are added to binding buffer. Assays are run with test or reference compound over a range of concentration (0.0001-10 uM) in triplicate using a 96-well sample plate containing radioligands specific for the target receptor or transporter. […] Bound radioactivity is counted in a Microbeta scintillation counter. Total bound radioactivity is estimated from triplicate wells containing no test or reference compound, together with nonspecific binding and filter blanks. The average bound radioactivity in the presence of the test compounds is expressed % inhibition=100%−% radioactivity bound. […]

Chain of a3b4 nAChRs (P30926 22-498): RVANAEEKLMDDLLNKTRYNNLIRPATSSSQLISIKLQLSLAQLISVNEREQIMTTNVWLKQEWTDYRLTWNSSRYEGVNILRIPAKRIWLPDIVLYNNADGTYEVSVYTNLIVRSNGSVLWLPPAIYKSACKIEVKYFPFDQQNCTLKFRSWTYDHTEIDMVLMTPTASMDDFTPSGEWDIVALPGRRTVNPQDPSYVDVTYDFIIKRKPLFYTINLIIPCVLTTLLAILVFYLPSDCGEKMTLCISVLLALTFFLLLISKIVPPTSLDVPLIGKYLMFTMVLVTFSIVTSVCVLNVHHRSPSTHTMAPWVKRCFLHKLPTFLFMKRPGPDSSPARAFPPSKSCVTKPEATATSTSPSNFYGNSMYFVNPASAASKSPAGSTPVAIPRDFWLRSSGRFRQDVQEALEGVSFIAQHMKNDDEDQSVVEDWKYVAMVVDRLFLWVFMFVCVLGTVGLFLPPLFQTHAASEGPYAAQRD
Chain of a3b4 nAChRs (P32297 32-505): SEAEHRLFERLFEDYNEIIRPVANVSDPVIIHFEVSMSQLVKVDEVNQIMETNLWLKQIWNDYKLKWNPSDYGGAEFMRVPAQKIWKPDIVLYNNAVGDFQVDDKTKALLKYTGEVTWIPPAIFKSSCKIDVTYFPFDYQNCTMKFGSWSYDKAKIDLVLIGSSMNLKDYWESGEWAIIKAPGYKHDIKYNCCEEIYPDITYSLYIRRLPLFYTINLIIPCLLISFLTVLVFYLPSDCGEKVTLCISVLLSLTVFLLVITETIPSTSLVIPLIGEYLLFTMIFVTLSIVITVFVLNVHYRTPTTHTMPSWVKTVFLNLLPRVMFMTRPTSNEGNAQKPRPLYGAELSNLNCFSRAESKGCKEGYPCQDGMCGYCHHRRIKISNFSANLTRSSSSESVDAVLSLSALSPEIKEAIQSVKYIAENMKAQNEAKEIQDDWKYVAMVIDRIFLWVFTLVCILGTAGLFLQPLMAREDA

Compound	Ratio from 18-MC (relative potency at a3b4 nAChRs) (a3b4 nAChRs; ratio to 18-MC = 1, lower is more potent)	Crossing of the BBB / concentration in brain [1]	Ki (mu opioid receptor (mOR)) [nM]	Potency as inhibitor of the epibatidine-induced calcium response in a3b4 nAChRs, in words (a3b4 nAChRs; compared with 18-MC and noribogaine)
COCC[C@H]1CC2CN3CCc4c([nH]c5ccccc45)[C@](C(=O)OC)(C2)[C@H]13 [Compound 18-MC, 18-methoxycoronaridine]	1	cross the BBB and reach micromolar concentrations in brain		
CC[C@H]1CC2C[C@H]3c4[nH]c5ccc(O)cc5c4CCN(C2)C13 [Noribogaine, 12-hydroxyibogamine]		cross the BBB and reach micromolar concentrations in brain	900	
Ibogaine				more potent inhibitors than 18-MC
